Experiment [1] has as its system PC KO and ACLY KO cells. In words: Cell number / viability of PC KO and ACLY KO 143B cells. Format: cell-based. As to the method: All cell lines, 143b, HeLa, U2OS, and transmitochondrial cybrids carrying mutation in CI (ND2), CIII (CytB) or CIV (Cox2) subunits, were maintained in DMEM high glucose (HyClone), 10% FBS and 1% P/S at 37°C with 5% CO2. Mitochondrial mutant cells were cultured with supplementation of 50 µg/mL uridine. The selected cancer cell lines with different levels of malic enzyme (HCC15, KYSE410, CAKI1, J82, MDAMB453, Colo320, NCIH1703) were obtained from the DSMZ-German Collection of Microorganisms and Cell Cultures GmbH and cultured in the same DMEM 10% FBS medium. OCI-Lys3 and RCH-ACV cell lines (cells in suspension), were obtained from the same repository and cultured in RPMI 10% FBS medium. Transfections for gain- and loss-of-function studies were performed according to the manufacturer's instructions using the polyfect reagent (Qiagen, 301107). For cell number and proliferation experiments, cells were seeded in 12 or 6-well plates and allowed to proliferate for the specified durations. Subsequently, cells were trypsinized and quantified using a hemocytometer (NanoEnTek, DHC-N01). Cell viability was quantified using propidium iodide (PI; 50 µg/ml) staining.
Generation of knockout cell lines using CRISPR-Cas9 technology was performed with the lenti-CRISPR v2 vector (Addgene #52961). Guide sequences are: • sgGFPT1, 5-[…]-3 (SEQ ID NO: 1); • sgG6PD, 5-[…]-3 (SEQ ID NO: 2); • sgPHGDH, 5-[…]-3 (SEQ ID NO: 3); • sgMPC1, 5-[…]-3 (SEQ ID NO: 4) • sgPC, 5-CAGGCCCGGAACACACGGA-3 (SEQ ID NO: 5); • sgACLY, 5-[…]-3 (SEQ ID NO: 6); • sgME1, 5-[…]-3 (SEQ ID NO: 7).
To assess the relative contribution of PC and ACLY to cell death phenotype in ETC deficient cells upon PPP inhibition, we treated PC KO and ACLY KO cells with Piericidin, G6PDi or both. A massive reduction in cell viability was observed as early as 48 h in both PC KO and ACLY KO cells after dual inhibition (Figure 3E), which correlated with a significant decrease in the intracellular levels of malate (Figure 3F). […]

The subject of experiment [2] is primary neurons. Put plainly: Patch-clamp capacitance analysis. Format: cell-based, mouse. The following applies: CI inhibition. The procedure: A glass coverslip containing mixed cortical cultures of 10-14 DIV was placed in an immersion chamber constantly perfused with aCSF (119 mM NaCl, 2.5 mM KCl, 2.5 mM CaCl2, 1.2 mM MgCl2, 26 mM NaHCO3, 1 mM NaH2PO4, 11 mM glucose pH adjusted to 7.4 and osmolarity to 290 ±5 mOsm) gassed with carbogen (5-10% CO2, 90-95% O2) and its temperature closely monitored at 29°C. Cells were recorded under current-clamp configuration with patch recording glass electrodes (4-6 MΩ) composed of silver/silver chloride electrodes inserted in glass pipettes filled with internal solution (115 mM K gluconate, 20 mM KCl, 10 mM HEPES, 2 mM MgCl2, 4 mM Na2-ATP, 0.3 mM Na3-GTP pH adjusted to 7.2-7.3 and osmolarity to 290 ±5 mOsm). Resting membrane potential was directly acquired from these recordings. Voltage responses to current injections of -100 pA were used to calculate whole-cell input resistance and membrane capacitance. This last parameter is calculated from the exponential time constant (τ) of the voltage change, as τ=R*C (R: input resistance, C: capacitance).
Data acquisition was carried out with MultiClamp 700 A/B amplifiers and pCLAMP 9/10 software (Molecular Devices). Data analysis was performed using Clampfit software (Molecular Devices).

Experiment [3] has as its system 143B cells. Put plainly: PPP activity measurement in 143B cells. Particulars: 24 h. In kind it is cell-based. As to the method:
The determination of pentose-phosphate pathway (PPP) activity was conducted by assessing the difference between 14CO2 production from 1-14C-glucose, which decarboxylates through the 6-phosphogluconate dehydrogenase-catalyzed reaction, and that of 6-^14C-glucose, which decarboxylates through the tricarboxylic acid cycle.
Increased lactate secretion is considered a good indicator of enhanced glycolytic rates, which is a common feature of ETC-inhibited cells as they switch from OXPHOS to glycolysis to maintain ATP levels. […] We culture 143B cells in the presence of Piericidin for 24 h and PPP activity and lactate release, as a proxy of glycolysis, were measured. As expected, lactate detection in the media was higher in CI-inhibited cells. […] Next, we wonder if in this context, glucose can be overused by glycolysis and therefore diverted away from the PPP. Diseases associated with impaired mitochondrial function negatively impact high energy demanding tissues such as the brain. As such, neurons that are highly sensitive to ETC inhibition also rely strongly on glucose metabolism. Thus, we used mouse cortical neurons to determine the rates of glycolysis and PPP as glucose levels become limiting. Control and Piericidin treated neurons where cultured in media containing supraphysiological (25 mM), physiological (5 mM) or subphysiological concentrations of glucose (2,5 mM). […]

Experiment [4] concerns astrocytes. Put plainly: ATP measurement in astrocytes (ATP Assay Kit). Format: cell-based, mouse. The following applies: 100 nM, 24 h. As to the method: Primary cultures of C57BL/6 mouse cortical astrocytes were derived from postnatal day 2-3 pups. They were plated on pre-treated dishes coated with Poly-L-lysine (100 µg/ml) and cultured in DMEM/F-12 (ThermoFisher) supplemented with 15% FBS and 1% penicillin/streptomycin (P/S). After 24 hours of plating, the medium was switched to 10% FBS.
ATP Assay Kit (Abcam, #ab83355) was used to analyze ATP levels. Briefly, Cells were seeded in M24 plates (neurons at 500,000 cells/mL and monolayer density for astrocytes), and for the ATP experiments, three wells per condition were combined. An alternative deproteinization protocol was applied to purify the samples, and a Colorimetric Assay was conducted as outlined in the original protocol. The measurements were obtained using the CLARIOstar Plus plate reader from BMG LABTECH.

Turning to `CC=C(C)C(O)C(C)C=C(C)C=CCC(C)=CCc1nc(OC)c(OC)c(O)c1C` (stereo not drawn) [Piericidin, Piericidin A], in experiment [1] (ACLY KO cells), the “cell death or cell proliferation” value is on record as “did not translate into increased cell death or impaired cell proliferation”. Besides, the proliferation result in experiment [1] (PC KO cells, 100 nM, 72 h) is “proliferated normally”. For the same compound, in experiment [1] (double ablation of PC and ACLY, 100 nM, 72 h), the “sensitivity to ETC inhibition (cell number)” value is reported as “sensitize”. The capacitance entry in experiment [2] is on record as “lower”. For the same compound, the PPP activity entry in experiment [3] is “significant increase”. Moreover, the ATP levels result in experiment [4] is “did not cause any alteration”.

These data come from patent EP4653001A1, “TREATMENT, DIAGNOSIS AND/OR PROGNOSIS OF MITOCHONDRIAL DISEASES” (Universidad Autónoma de Madrid, priority 2024, dated 2025).
